From PMC6891756, “Synthesis and Biological Evaluation of Novel Aminochalcones as Potential Anticancer and Antimicrobial Agents” (Molecules, 2019)
≈ marks a conversion by molar mass, not a printed value.

Assays:
HT-29 = assay: SRB antiproliferative assay, HT-29; format: cell-based, human; conditions: Homo sapiens, HT-29; SRB, 48 h, 1–100 µg·mL^−1; ND = not detected in the tested concentration range
Experimental: (§1) Anticancer activity was evaluated using the sulforhodamine B assay (SRB) on four different human colon cancer cell lines: HT-29, LS180, LoVo and LoVo/DX and green monkey kidney fibroblasts COS7 (ATCC, Manassas, VA, USA). Cell lines HT-29 and COS7 were cultured in α-MEM medium (IIET PAS, Wrocław, Poland), LS180 in OptiMEM medium (IIET PAS), LoVo and LoVo/DX in mixture of α-MEM and OptiMEM medium (1:1 (v:v)). Each culture medium was supplemented with 10% fetal bovine serum, 2 mM glutamine, 100 μg·mL^−1 penicillin, 100 μg·mL^−1 streptomycin and 0.25 μg·mL^−1 amphotericin (all supplements purchased from Gibco (Paisley, UK). Cells were incubated at 37 °C, 5% CO2 in HeraCELL 150i incubator (Thermo Fisher Scientific, Waltham, MA, USA).
(§2) For the SRB assay, cells were seeded onto 96-well plates (Sarstedt, Nümbrecht, Germany) at a density of 5·10^3/well and cultured overnight as described above. Then, the growth medium was gently removed and replaced with fresh medium, supplemented with aminochalcone derivatives in the concentration ranging from 1 µg·mL^−1 to 100 µg·mL^−1. All stock solutions were prepared in DMSO at a concentration of 10 mg·mL^−1. Cells were incubated for 48 h and then the SRB assay was performed as described previously. Each experiment was performed in quadruplicate. The final results were reported as the IC50 values calculated for three independent experiments. Cisplatin (Acros Organics, Waltham, MA, USA) and doxorubicin (Fisher BioReagents, Waltham, MA, USA) were used as positive controls of the test.

LS180 = assay: SRB antiproliferative assay, LS180; format: cell-based, human; conditions: Homo sapiens, LS180, 48 h, 1–100 µg·mL^−1, ND = not detected in the tested concentration range
Experimental: as §1, §2

LoVo = assay: SRB antiproliferative assay, LoVo; format: cell-based, human; conditions: Homo sapiens, LoVo, 48 h, 1–100 µg·mL^−1, ND = not detected in the tested concentration range
Experimental: as §1, §2

[1] = system: Escherichia coli ATCC10536; assay: Microbial growth curve screening, E. coli; format: cell-based; conditions: 0.1% (w/v), OD at 560 nm, control 1.61
Experimental: (§3) The antimicrobial screening tests were performed on two strains of bacteria: E. coli ATCC10536 and S. aureus DSM799, strain of yeast C. albicans DSM1386 and three strains of fungi: F. linii KB-F1, A. alternata CBS1526 and A. niger DSM1957. All microorganisms were obtained from the collection of the Faculty of Biotechnology and Food Microbiology, Wrocław University of Environmental and Life Sciences. The bacteria were cultured in nutrient broth (Biocorp, Warsaw, Poland), yeast and fungi in YM medium (3 g yeast extract, 3 g malt extract, 5 g bacteriological peptone and 10 g of glucose dissolved in 1 L of distilled water). The tests were carried out in 100-well microtiter plates. To each well 280 μL of culture medium, 10 μL of microorganism suspension and 10 μL of aminochalcone (1–18) dissolved in dimethyl sulfoxide (3% (w/v)) were added. The final concentration of the tested compound (1–18) was 0.1% (w/v). Each experiment were performed in 3 replications. The optical density of the cell suspension was measured on Bioscreen C (Automated Growth Curve Analysis System Lab System, Vantaa, Finland) at 560 nm automatically, at regular intervals of 30 min for 2–3 days. Cell cultures were maintained at 28 °C on a continuous shaker. To prepare the growth curves for each strain, the mean values of the absorbance in a function of time were used. The resulting antimicrobial activity was expressed as the increase of optical density (ΔOD) and was compared to that of the control cultures in the medium supplemented with dimethyl sulfoxide and also with reference substances: oxytetracycline (against bacteria), cycloheximide (against yeast) and nystatin (against fungi) (Sigma Aldrich).

[2] = system: Staphylococcus aureus DSM799; assay: Microbial growth curve screening, S. aureus; format: cell-based; conditions: 0.1% (w/v); for ∆OD S. aureus: OD at 560 nm, control 1.67; for Lag-phase S. aureus: control 2.5 h
Experimental: as §3

Candida albicans DSM1386 [3] = assay: Microbial growth curve screening, C. albicans; format: cell-based; conditions: 0.1% (w/v); for ∆OD C. albicans: OD at 560 nm, control 1.58; for Lag-phase C. albicans: control 3.0 h
Experimental: as §3

[4] = system: Alternaria alternata CBS1526; assay: Microbial growth curve screening, A. alternata; format: cell-based; conditions: 0.1% (w/v); for ∆OD A. alternata: OD at 560 nm, control 1.86; for Lag-phase A. alternata: control 16.5 h
Experimental: as §3

Fusarium linii KB-F1 = assay: Microbial growth curve screening, F. linii; format: cell-based; conditions: 0.1% (w/v); for ∆OD F. linii: OD at 560 nm, control 1.95; for Lag-phase F. linii: control 13.5 h
Experimental: as §3

[5] = system: Aspergillus niger DSM1957; assay: Microbial growth curve screening, A. niger; format: cell-based; conditions: 0.1% (w/v); for ∆OD A. niger: OD at 560 nm, control 2.14; for Lag-phase A. niger: control 11.0 h
Experimental: as §3

[6] = system: Escherichia coli ATCC10536; assay: MIC evaluation (broth method), E. coli; format: cell-based; conditions: 48–72 h, read-out: Minimal inhibitory concentration E. coli
Experimental: (§4) Sterile 96-well microtiter plates (Sarstedt) with nutrient broth (for bacteria) (Biocorp) or YM medium (for yeast and filamentous fungi) were inoculated with a standardized cell suspension of bacteria and yeast or fungal spores of 10^5 cell·mL^−1, and supplemented with aminochalcones dissolved in DMSO. […] All analysis were conducted in triplicates. The plates were incubated at 30 °C (bacteria and yeast) or 25 °C (filamentous fungi) for 48–72 h. The results were measured with the Spark® Multimode Microplate Reader (Tecan, Männedorf, Switzerland) at a 560 nm wavelength. The minimal inhibitory concentration was defined as the lowest concentration of a tested compound that completely restricted the growth of the microorganism. In order to verify the obtained results, microbial cultures subjected to each concentration of aminochalcone were inoculated onto nutrient agar or YM plates and incubated as described above. The lack of growth on agar plate was a confirmation of the MIC of the tested compound. The resulting MIC values were compared with the reference substances: oxytetracycline (against bacteria), cycloheximide (against yeast) and nystatin (against fungi) (Sigma Aldrich).

LoVo/DX = assay: SRB antiproliferative assay, LoVo/DX; format: cell-based, human; conditions: Homo sapiens, LoVo/DX, 48 h, 1–100 µg·mL^−1, ND = not detected in the tested concentration range
Experimental: as §1, §2

[7] = SRB assay, normal fibroblasts COS7; format: cell-based, green monkey; conditions: green monkey, COS7 kidney fibroblasts (normal cell line), ND = not detected in the tested concentration range
Experimental: as §1, §2

[8] = system: Staphylococcus aureus DSM799; assay: MIC evaluation (broth method), S. aureus; format: cell-based; conditions: 48–72 h, read-out: Minimal inhibitory concentration S. aureus
Experimental: as §4

Candida albicans DSM1386 [9] = assay: MIC evaluation (broth method), C. albicans; format: cell-based; conditions: DSM1386, read-out: Minimal inhibitory concentration C. albicans
Experimental: as §4

Row | Structure (SMILES) | IC50 (HT-29) [µg/mL] | IC50 (LS180) [µg/mL] | IC50 (LoVo) [µg/mL] | ∆OD E. coli [1] | ∆OD S. aureus [2] | Lag-phase S. aureus [2] [h] | ∆OD C. albicans (Candida albicans DSM1386 [3]) | Lag-phase C. albicans (Candida albicans DSM1386 [3]) [h] | ∆OD A. alternata [4] | Lag-phase A. alternata [4] [h] | ∆OD F. linii (Fusarium linii KB-F1) | Lag-phase F. linii (Fusarium linii KB-F1) [h] | ∆OD A. niger [5] | Lag-phase A. niger [5] [h] | MIC [6] [µg/mL] | IC50 (LoVo/DX) [µg/mL] | IC50 at 48 h [7] [µg/mL] | melting point [°C] | MIC [8] [µg/mL] | MIC (Candida albicans DSM1386 [9]) [µg/mL]
1 | COc1cc(/C=C/C(=O)c2ccc(N)cc2)ccc1OCc1ccccc1 [Compound 18, 4′-Amino-4-benzyloxy-3-methoxychalcone] | 5.01 ± 0.49 (≈ 13.9 µM) | 4.59 ± 0.29 (≈ 12.8 µM) | 3.54 ± 0.3 (≈ 9.85 µM) | 0.0 | 0.26 | 33.5 | 0.68 | 4.5 | 0.22 | 21.5 | 0.41 | 6.5 | 0.65 | 28.5 | 0.5 (≈ 1.39 µM) | – | – | – | – | –
2 | Nc1ccc(C(=O)/C=C/c2ccc(C(=O)O)cc2)cc1 [Compound 9, 4′-Amino-4-carboxychalcone] | 32.4 ± 0.99 (≈ 121 µM) | 18.4 ± 0.19 (≈ 68.7 µM) | 73.5 ± 0.98 (≈ 275 µM) | 0.0 | 0.35 | 37.0 | 0.97 | 8.5 | 1.12 | 12.5 | 0.99 | 13.5 | 0.51 | 35.0 | 0.125 (≈ 0.468 µM) | 66.2 ± 1.32 (≈ 248 µM) | 32 ± 8.11 (≈ 120 µM) | – | – | –
3 | CCc1ccc(/C=C/C(=O)c2ccccc2N)cc1 [Compound 4, 2′-Amino-4-ethylchalcone] | 3.98 ± 0.03 (≈ 15.8 µM) | 5.1 ± 0.65 (≈ 20.3 µM) | 4.77 ± 0.37 (≈ 19 µM) | 0.0 | 0.84 | 32.5 | 0.98 | 6.0 | 0.40 | 26.5 | 1.04 | 7.5 | 0.60 | 30.0 | 0.5 (≈ 1.99 µM) | 4.78 ± 0.19 (≈ 19 µM) | 9.57 ± 0.52 (≈ 38.1 µM) | 34 to 36 | – | –
4 | COc1cccc2c1C(=O)c1c(O)c3c(c(O)c1C2=O)C[C@@](O)(C(=O)CO)C[C@@H]3O[C@H]1C[C@H](N)[C@H](O)[C@H](C)O1 [Compound 20, Doxorubicin, reference compound] | 0.33 ± 0.02 (≈ 0.607 µM) | 0.05 ± 0.02 (≈ 0.092 µM) | 0.73 ± 0.18 (≈ 1.34 µM) | – | – | – | – | – | – | – | – | – | – | – | – | 5.32 ± 1.44 (≈ 9.79 µM) | 3.55 ± 1.15 (≈ 6.53 µM) | – | – | –
5 | Nc1cccc(C(=O)/C=C/c2ccc(C(=O)O)cc2)c1 [Compound 8, 3′-Amino-4-carboxychalcone] | 12.3 ± 0.32 (≈ 46.1 µM) | 9.22 ± 0.72 (≈ 34.5 µM) | 31.5 ± 0.13 (≈ 118 µM) | 0.0 | 0.0 | – | 0.28 | 23.0 | 1.14 | 26.0 | 0.45 | 13.0 | 1.11 | 39.0 | 0.125 (≈ 0.468 µM) | 27.44 ± 0.11 (≈ 103 µM) | 15.9 ± 1.04 (≈ 59.6 µM) | – | 0.125 (≈ 0.468 µM) | –
6 | C[C@@H]1C[C@@H]([C@H](O)CC2CC(=O)NC(=O)C2)C(=O)[C@@H](C)C1 [Cycloheximide, reference compound] | – | – | – | – | – | – | 0.0 | – | – | – | – | – | – | – | – | – | – | – | – | 0.5 (≈ 1.78 µM)
7 | CCc1ccc(/C=C/C(=O)c2cccc(N)c2)cc1 [Compound 5, 3′-Amino-4-ethylchalcone] | 3.43 ± 0.05 (≈ 13.6 µM) | 4.16 ± 0.12 (≈ 16.6 µM) | 1.79 ± 0.1 (≈ 7.12 µM) | 0.0 | 0.98 | 29.5 | 0.61 | 9.5 | 0.39 | 12.0 | 0.80 | 8.0 | 0.36 | 25.5 | 1 (≈ 3.98 µM) | 2.35 ± 0.08 (≈ 9.35 µM) | 4.42 ± 0.27 (≈ 17.6 µM) | – | – | –
8 | CN(C)[C@@H]1C(O)=C(C(N)=O)C(=O)[C@@]2(O)C(O)=C3C(=O)c4c(O)cccc4[C@@](C)(O)[C@H]3[C@H](O)[C@@H]12 [Oxytetracycline, reference compound] | – | – | – | 0.0 | 0.0 | – | – | – | – | – | – | – | – | – | 0.5 (≈ 1.09 µM) | – | – | – | 0.125 (≈ 0.271 µM) | –
9 | Nc1cccc(C(=O)/C=C/c2ccc(OCc3ccccc3)cc2)c1 [Compound 14, 3′-Amino-4-benzyloxychalcone] | 7.54 ± 0.18 (≈ 22.9 µM) | 6.51 ± 0.62 (≈ 19.8 µM) | – | 0.0 | – | 33.5 | – | 4.5 | – | 12.0 | – | 6.0 | – | 20.5 | 0.0625 (≈ 0.19 µM) | 5.19 ± 0.41 (≈ 15.8 µM) | 7.61 ± 0.43 (≈ 23.1 µM) | 115 to 120 | – | –
10 | Nc1ccc(C(=O)/C=C/c2ccc(OCc3ccccc3)cc2)cc1 [Compound 15, 4′-Amino-4-benzyloxychalcone] | 7.83 ± 0.14 (≈ 23.8 µM) | 8.23 ± 0.49 (≈ 25 µM) | 7.64 ± 0.53 (≈ 23.2 µM) | 0.0 | 0.22 | 8.0 | 0.37 | 16.0 | 1.04 | 19.5 | 0.50 | 11.5 | 0.57 | 25.0 | 0.125 (≈ 0.379 µM) | 6.66 ± 0.48 (≈ 20.2 µM) | 13.4 ± 2.78 (≈ 40.6 µM) | – | – | –
